{"source": "patent US20070099841A1", "about": "“Prodrugs of T3 and T4 with enhanced bioavailability” (New River Pharmaceuticals Inc., priority 2005, published 2007)", "key": {"[1]": {"tested_on": "TSH", "test": "Serum TSH after oral administration to hypothyroid rats (chemiluminescent immunoassay)", "type": "in vivo, Sprague-Dawley rats", "conditions": "for TSH levels in response to administration: oral 12 μg/kg T3; for Individual animal TSH: individual animals 1-6, oral 12 μg/kg T3", "experimental": "(§1) T3 sodium, G-T3, V-T3, I-T3, Y-T3, A2-T3, P2-T3, or F2-T3 were administered at equimolar doses to Sprague-Dawley rats (12 μg/kg T3; HED˜120 μg T3 sodium; n=6, per group) that were hypothyroid due to removal of the thyroid gland approximately one week prior to evaluation. Serum was collected at 0 (pre-dose), 1, 2, 4, 6, 8 and 12 hours post-dose and analyzed for total T3 and TSH by chemiluminescent immunoassay (Immulite CIA). […] At 1 hour post dose the mean level of Total T3 was 327.3, 429.5, 432.7, 403.3, 431, and 433.1 ng/ml for G-T3, V-T3, I-T3, Y-T3, P2-T3, and F2-T3 dosed animals respectively as compared to 577 ng/ml for T3 sodium dosed animals. Applicants note that some variation in these values may be present as with A2-T3 (FIGS. 15 and 16)."}, "[2]": {"parameters": "species or system Sprague-Dawley rats", "conditions": "rat, in vivo", "experimental": "Compounds were tested in Sprague-dawley rats (˜250 g). Defined doses were delivered as oral solutions in 0.5% sodium bicarbonate buffer with T3 sodium salt containing 12 mcgT3/kg or triiodothyronine composition containing the equivalent amount of T3. Rats were dosed immediately following 0 hour serum collection. Serum was collected from rats at 2, 4, 6, 9, 12 and 24 hours after capsule delivery. Total serum T3 concentrations were determined by ELISA using a commercially available kit (Total Triiodothyronine (total T3) ELISA KIT, product #1700, ALPHA DIAGNOSTIC, San Antonio, Tex.). Total serum T4 concentrations were determined by ELISA using a commercially available kit (Total Thyronine (Total T4) ELISA KIT, product #1100, ALPHA DIAGNOSTIC, San Antonio, Tex.).\nThe general procedures described above were employed for the experimental data described below. These procedures are subject to minor variations in timing and weight of rats, etc.\nas §1"}, "[3]": {"conditions": "0 h (pre-dose), mean n=6, oral 12 μg/kg T3"}, "[4]": {"conditions": "1 h, mean n=6, oral 12 μg/kg T3"}, "[5]": {"conditions": "2 h, mean n=6, oral 12 μg/kg T3"}, "[6]": {"conditions": "4 h, mean n=6, oral 12 μg/kg T3"}, "[7]": {"conditions": "6 h, mean n=6, oral 12 μg/kg T3"}, "[8]": {"conditions": "8 h, mean n=6, oral 12 μg/kg T3"}, "[9]": {"conditions": "12 h, mean n=6, oral 12 μg/kg T3"}}, "note": "Where “and” joins values, the source holds several entries; their conditions need not be identical. Equal values may be shown once. Read-outs that look alike come from different tables or passages of the source."}
{"compound": "O=C(O)[C@H](Cc1cc(I)c(Oc2ccc(O)c(I)c2)c(I)c1)NC(=O)[C@@H]1CCCN1C(=O)[C@@H]1CCCN1", "note": "[P2-T3]", "values": [{"measurement": "TSH, mean", "setting": "[1]; [3]", "value": 2.988, "unit": "μIU"}, {"measurement": "TSH, mean", "setting": "[1]; [4]", "value": 2.438, "unit": "μIU"}, {"measurement": "TSH, mean", "setting": "[1]; [5]", "value": 1.363, "unit": "μIU"}, {"measurement": "TSH, mean", "setting": "[1]; [6]", "value": 0.346, "unit": "μIU"}, {"measurement": "TSH, mean", "setting": "[1]; [7]", "value": 0.21, "unit": "μIU"}, {"measurement": "TSH, mean", "setting": "[1]; [8]", "value": 0.189, "unit": "μIU"}, {"measurement": "TSH, mean", "setting": "[1]; [9]", "value": 0.735, "unit": "μIU"}, {"measurement": "TSH levels in response to administration", "setting": "[1]", "value": "decreased rapidly"}, {"measurement": "Total T3 AUC, % (of T3)", "setting": "[2]", "value": 92.3, "unit": "%"}, {"measurement": "Total T3Δ dAUC, % (of T3)", "setting": "[2]", "value": 97.9, "unit": "%"}, {"measurement": "Variability of T3 absorption compared with T3 sodium", "setting": "[2]", "value": "decreased variability of T3 absorption"}, {"measurement": "mean level of Total T3 at 1 hour post dose", "setting": "[2]; po", "value": 0.431, "unit": "µg/mL"}]}
{"compound": "N[C@@H](Cc1cc(I)c(Oc2ccc(O)c(I)c2)c(I)c1)C(=O)O", "note": "[T3 sodium, 3,3′,5-triiodo-L-thyronine]", "values": [{"measurement": "Individual animal TSH", "setting": "[1]; 0 h (pre-dose)", "value": "1.840 μIU and 2.296 μIU and 2.088 μIU and 2.480 μIU and 1.884 μIU and 2.572 μIU"}, {"measurement": "TSH, mean", "setting": "[1]; [3]", "value": 2.193, "unit": "μIU"}, {"measurement": "Individual animal TSH", "setting": "[1]; 1 h", "value": "1.680 μIU and 1.796 μIU and 1.924 μIU and 2.580 μIU and 1.868 μIU and 2.344 μIU"}, {"measurement": "TSH, mean", "setting": "[1]; [4]", "value": 2.032, "unit": "μIU"}, {"measurement": "Individual animal TSH", "setting": "[1]; 2 h", "value": "1.264 μIU and 1.284 μIU and 0.920 μIU and 1.116 μIU and 1.080 μIU and 1.180 μIU"}, {"measurement": "TSH, mean", "setting": "[1]; [5]", "value": 1.141, "unit": "μIU"}, {"measurement": "Individual animal TSH", "setting": "[1]; 4 h", "value": "0.240 μIU and 0.252 μIU (2×) and 0.204 μIU and 0.200 μIU and 0.312 μIU"}, {"measurement": "TSH, mean", "setting": "[1]; [6]", "value": 0.243, "unit": "μIU"}, {"measurement": "Individual animal TSH", "setting": "[1]; 6 h", "value": "0.116 μIU and 0.140 μIU and 0.136 μIU and 0.120 μIU (2×) and 0.160 μIU"}, {"measurement": "TSH, mean", "setting": "[1]; [7]", "value": 0.132, "unit": "μIU"}, {"measurement": "Individual animal TSH", "setting": "[1]; 8 h", "value": "0.080 μIU and 0.156 μIU and 0.152 μIU and 0.132 μIU and 0.108 μIU and 0.188 μIU"}, {"measurement": "TSH, mean", "setting": "[1]; [8]", "value": 0.136, "unit": "μIU"}, {"measurement": "Individual animal TSH", "setting": "[1]; 12 h", "value": "0.120 μIU and 0.260 μIU and 0.256 μIU and 0.416 μIU and 0.300 μIU"}, {"measurement": "TSH, mean", "setting": "[1]; [9]", "value": 0.270, "unit": "μIU"}, {"measurement": "TSH, mean", "setting": "[1]; 12 h, mean n=6, oral 12 μg/kg T3, listed as T3", "value": 0.27, "unit": "μIU"}, {"measurement": "TSH levels in response to administration", "setting": "[1]", "value": "decreased rapidly"}, {"measurement": "Tmax, % T3", "setting": "[2]; Sprague-Dawley", "value": 100, "unit": "%"}, {"measurement": "Tmax, Low − High", "setting": "[2]; Sprague-Dawley", "value": "1 − 6"}, {"measurement": "Total T3 AUC, % (of T3)", "setting": "[2]; Sprague-Dawley", "value": 100, "unit": "%"}, {"measurement": "Total T3 AUClast, % T3", "setting": "[2]; Sprague-Dawley", "value": 100, "unit": "%"}, {"measurement": "Total T3 Cmax, % T3", "setting": "[2]; Sprague-Dawley", "value": 100, "unit": "%"}, {"measurement": "Total T3Δ AUClast, % T3", "setting": "[2]; Sprague-Dawley", "value": 100, "unit": "%"}, {"measurement": "Total T3Δ Cmax, % T3", "setting": "[2]; Sprague-Dawley", "value": 100, "unit": "%"}, {"measurement": "Total T3Δ dAUC, % (of T3)", "setting": "[2]; Sprague-Dawley", "value": 100, "unit": "%"}, {"measurement": "Total T3 Tmax", "setting": "[2]; Sprague-Dawley, po, 12 ug/kg", "value": 3.2, "unit": "h"}, {"measurement": "Total T3 Tmax, mean", "setting": "[2]; Sprague-Dawley, po, 12 ug/kg", "value": 3.2, "unit": "h"}, {"measurement": "Total T3Δ Tmax, mean", "setting": "[2]; Sprague-Dawley, po, 12 ug/kg", "value": 3.2, "unit": "h"}, {"measurement": "mean level of Total T3 at 1 hour post dose", "setting": "[2]; Sprague-Dawley, po, 1 h", "value": 0.577, "unit": "µg/mL"}, {"measurement": "Total T3 AUClast, Low − High", "setting": "[2]", "value": "4292 − 6421 ng · h/dL"}, {"measurement": "Total T3 Cmax, Low − High", "setting": "[2]", "value": "484 − 915 ng/dL"}, {"measurement": "Total T3Δ AUClast, Low − High", "setting": "[2]", "value": "3688 − 5526 ng · h/dL"}, {"measurement": "Total T3Δ Cmax, Low − High", "setting": "[2]", "value": "444 − 875 ng/dL"}, {"measurement": "Total T3 AUC", "setting": "[2]; po, 12 ug/kg", "value": 5171}]}
{"compound": "CC(C)[C@H](N)C(=O)N[C@@H](Cc1cc(I)c(Oc2ccc(O)c(I)c2)c(I)c1)C(=O)O", "note": "[V-T3]", "values": [{"measurement": "TSH, mean", "setting": "[1]; [3]", "value": 2.309, "unit": "μIU"}, {"measurement": "TSH, mean", "setting": "[1]; [4]", "value": 2.212, "unit": "μIU"}, {"measurement": "TSH, mean", "setting": "[1]; [5]", "value": 1.123, "unit": "μIU"}, {"measurement": "TSH, mean", "setting": "[1]; [6]", "value": 0.282, "unit": "μIU"}, {"measurement": "TSH, mean", "setting": "[1]; [7]", "value": 0.174, "unit": "μIU"}, {"measurement": "TSH, mean", "setting": "[1]; [8]", "value": 0.175, "unit": "μIU"}, {"measurement": "TSH, mean", "setting": "[1]; [9]", "value": 0.54, "unit": "μIU"}, {"measurement": "TSH levels in response to administration", "setting": "[1]", "value": "decreased rapidly"}, {"measurement": "Total T3 AUC, % (of T3)", "setting": "[2]", "value": 94.9, "unit": "%"}, {"measurement": "Total T3Δ dAUC, % (of T3)", "setting": "[2]", "value": 98.6, "unit": "%"}, {"measurement": "Variability of T3 absorption compared with T3 sodium", "setting": "[2]", "value": "decreased variability of T3 absorption"}, {"measurement": "mean level of Total T3 at 1 hour post dose", "setting": "[2]; po", "value": 0.4295, "unit": "µg/mL"}]}
{"compound": "N[C@@H](Cc1ccc(O)cc1)C(=O)N[C@@H](Cc1cc(I)c(Oc2ccc(O)c(I)c2)c(I)c1)C(=O)O", "note": "[Y-T3]", "values": [{"measurement": "TSH, mean", "setting": "[1]; [3]", "value": 2.595, "unit": "μIU"}, {"measurement": "TSH, mean", "setting": "[1]; [4]", "value": 2.648, "unit": "μIU"}, {"measurement": "TSH, mean", "setting": "[1]; [5]", "value": 1.601, "unit": "μIU"}, {"measurement": "TSH, mean", "setting": "[1]; [6]", "value": 0.471, "unit": "μIU"}, {"measurement": "TSH, mean", "setting": "[1]; [7]", "value": 0.27, "unit": "μIU"}, {"measurement": "TSH, mean", "setting": "[1]; [8]", "value": 0.221, "unit": "μIU"}, {"measurement": "TSH, mean", "setting": "[1]; [9]", "value": 0.651, "unit": "μIU"}, {"measurement": "TSH levels in response to administration", "setting": "[1]", "value": "decreased rapidly"}, {"measurement": "Total T3 AUC, % (of T3)", "setting": "[2]", "value": 95.5, "unit": "%"}, {"measurement": "Total T3Δ dAUC, % (of T3)", "setting": "[2]", "value": 100.4, "unit": "%"}, {"measurement": "Variability of T3 absorption compared with T3 sodium", "setting": "[2]", "value": "decreased variability of T3 absorption"}, {"measurement": "mean level of Total T3 at 1 hour post dose", "setting": "[2]; po", "value": 0.4033, "unit": "µg/mL"}]}
